Laboratory results published in US20210317086A1, “Tramadol HBR-Celecoxib Co-Crystal” (Mylan Laboratories Limited, priority 2018, published 2021).

Test: Indicative stability: storage of the co-crystal at 40° C./75% RH and at 25° C./60% RH for 6 months, analysed by PXRD and HPLC
Format: physicochemical
Description: The PXRD measurements were carried out using PANalytical X′Pert PRO powder diffractometer equipped with goniometer of θ/θ configuration and X'Celerator detector. The Cu-anode X-ray tube was operated at 40 kV and 30 mA. The experiments were conducted over the […] of 2.0°-50.0°, 0.030° step size and 50 seconds step time.
In yet another embodiment, physical and chemical stability of 1:1 co-crystal of (rac)-tramadol.HBr-celecoxib sample was determined by storing the sample at 40° C./75% relative humidity (RH) and at 25° C./60% relative humidity (RH) for 6 months as mentioned in below Table 1. The samples were analyzed by PXRD and HPLC for final purity.

For “1:1 co-crystal of (rac)-tramadol hydrobromide and celecoxib”, the “HPLC purity (%)” value (at 25° C./60% RH, 1 month) was 99.88%, the PXRD (at 25° C./60% RH, 1 month) was “Stable” and the “HPLC purity (%)” value (at 25° C./60% RH, 2 months) was 99.89%. For the same substance, the PXRD (at 25° C./60% RH, 2 months) was “Stable”, the “HPLC purity (%)” value (at 25° C./60% RH, 3 months) was 99.87% and the PXRD (at 25° C./60% RH, 3 months) was “Stable”. For the same substance, the “HPLC purity (%)” value (at 25° C./60% RH, 6 months) was 99.87%, the PXRD (at 25° C./60% RH, 6 months) was “Stable” and the “HPLC purity (%)” value (at 25° C./60% RH, Initial) was 99.89%. For the same substance, the PXRD (at 25° C./60% RH, Initial) was “Crystalline”, the “HPLC purity (%)” value (at 40° C./75% RH, 1 month) was 99.86% and the PXRD (at 40° C./75% RH, 1 month) was “Stable”. For the same substance, the “HPLC purity (%)” value (at 40° C./75% RH, 2 months) was 99.89%, the PXRD (at 40° C./75% RH, 2 months) was “Stable” and the “HPLC purity (%)” value (at 40° C./75% RH, 3 months) was 99.88%. The PXRD (at 40° C./75% RH, 3 months) was “Stable”, the “HPLC purity (%)” value (at 40° C./75% RH, 6 months) was 99.86% and the PXRD (at 40° C./75% RH, 6 months) was “Stable”. For the same substance, the “HPLC purity (%)” value (at 40° C./75% RH, Initial) was 99.89%, the PXRD (at 40° C./75% RH, Initial) was “Crystalline” and the “physical and chemical stability” value (conclusion from 6 months storage at 40° C./75% RH and 25° C./60% RH) was “physically and chemically stable”. The “change in HPLC purity and PXRD pattern on storage” value (stored for 6 months at 40° C./75% RH and at 25° C./60% RH) was “no change in HPLC purity and PXRD pattern”.
